Laboratory results taken from US8507219B2, “Method of treating inflammation with statins” (MUSC Foundation for Research Development, priority 1997, dated 2013).
Where two headings read alike, the source gives them in different places.

Columns and labels:
[1] = system: NO production in rat resident macrophages; test: LPS-/cytokine-induced NO production (nitrite) in rat resident peritoneal macrophages; assay type: cell-based; settings: for inhibition at 20000 µM: Rattus norvegicus, Macrophage
Description: Isolation of Rat Macrophages and Induction of NO Production Resident macrophages were obtained from rats by peritoneal lavage with sterile RPMI 1640 medium containing 1% fetal bovine serum and 100 μg/ml gentamicin (Wang et al., 1995). Cells were washed three times with RPMI 1640 at 4° C. All cell cultures were maintained at 37° C. in a humidified incubator containing 5% CO2 in air. Macrophages, at a concentration of 2×10^6/ml in RPMI 1640 medium containing L-glutamine and gentamicin, were added in volumes of 800 μl to a 35 mm plate. After 1 h, nonadherent cells were removed by washing and 800 μl of serum-free RPMI 1640 medium with various stimuli were added to the adherent cells. After 24 h incubation in 5% CO2 in air at 37° C., the culture supernatants were transferred to measure NO production (Geng et al., 1995; Wang et al., 1995).
Isolation of rat macrophages and induction of NO production Resident macrophages were obtained from rat by peritoneal lavage with sterile RPMI 1640 medium containing 1% fetal bovine serum and 100 μg/ml gentamicin as described herein. Cells were washed three times with RPMI 1640 at 4° C. All cell cultures were maintained at 37° C. in a humidified incubator containing 5% CO2 in air. Macrophages at a concentration of 2×10^6/ml in RPMI 1640 medium containing L-glutamine and gentamicin were added in volumes of 800 μl to a 35 mm plate. After 1 h, nonadherent cells were removed by washing and 800 μl of serum-free RPMI 1640 medium with various stimuli were added to the adherent cells. After incubation in 5% CO2 in air at 37° C., culture supernatants were transferred to measure NO production.
Isolation of rat macrophages and induction of NO production Resident macrophages were obtained from rat by peritoneal lavage with sterile RPMI 1640 medium containing 1% FBS and 100 μg/ml gentamicin. Cells were washed three times with RPMI 1640 at 4° C., and were maintained at 37° C. in a humidified incubator containing 5% CO2 in air. Macrophages at a concentration of […] in RPMI 1640 medium containing L-glutamine and gentamicin were added in volumes of 800 μl to a 35-mm plate. After 1 h, nonadherent cells were removed by washing, and 800 μl of serum-free RPMI 1640 medium with various stimuli was added to the adherent cells. After 24 h the culture supernatants were transferred to measure NO production.
Protein was measured (Bradford, 1976).

[2] = system: EAE in female Lewis rats; test: Experimental allergic encephalomyelitis (EAE), clinical score; assay type: in vivo
Description: Rats were induced with EAE by injecting intradermally 50 μg of myelin basic protein (MBP) per animal emulsified in complete Freund's adjuvant (CFA) into the medial footpad of each hind leg on day 1 followed by a booster injection on the 7th day under ether anesthesia. Clinical symptoms in these rats manifest as an ascending paralysis resulting in death in most animals. The signs of EAE were scored as: (0) normal; (1) piloerection; […] (4) paraplegia; and (5) moribund. […] One group of animals induced for EAE was left untreated while another group of animals was not induced for EAE and used as the control group.

[3] = system: iNOS; test: Expression of iNOS protein (immunoblot) and mRNA (Northern) in rat primary astrocytes; assay type: cell-based
Method in brief: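 Cells incubated 24 h with or without stimuli (cytokines or LPS). iNOS protein detected by immunoblot with anti-mouse macrophage iNOS antibody and [^125I]-protein A. Northern blot: 20 μg total RNA hybridised at 68° C with ^32P-cDNA probe; iNOS mRNA quantified densitometrically relative to GAPDH rehybridisation.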

[4] = treatment from first day of immunization

O=C([O-])Cc1ccccc1.[Na+] [NaPA, sodium salt of phenylacetic acid]
Production of NO [1]: 9.5 ± 0.7 nmol/24 h/mg protein
protection against EAE disease ([2]; rat, in vivo): protected the rats from the severity of the disease
LPS-mediated induction of iNOS protein and mRNA [3]: significantly inhibited the LPS-mediated induction of iNOS protein and mRNA

CC(=O)N[C@@H](CS)C(=O)O [NAC, N-acetyl cysteine]
Nitrite ([1]; IFN-γ 200 U/ml, NAC 20 mM 2 h before): 9.9 ± 1.8 nmol/mg/24 h
Nitrite ([1]; IL-1β 200 ng/ml, NAC 20 mM 2 h before): 9.2 ± 0.7 nmol/mg/24 h
Nitrite ([1]; LPS 0.2 μg/ml + IFN-γ 50 U/ml, NAC 20 mM 2 h before): 25.2 ± 3.9 nmol/mg/24 h
Nitrite ([1]; LPS 0.2 μg/ml + IL-1β 25 ng/ml, NAC 20 mM 2 h before): 28.4 ± 3.7 nmol/mg/24 h
Nitrite ([1]; LPS 0.2 μg/ml + TNF-α 20 ng/ml, NAC 20 mM 2 h before): 13.6 ± 2.6 nmol/mg/24 h
Nitrite ([1]; LPS 1.0 μg/ml, 24 h, NAC 20 mM 2 h before LPS, NMA 0.1 mM, arginase 100 units/ml with LPS): 11.6 ± 1.5 nmol/mg Protein^24h
rate of nitrite accumulation ([1]; LPS 1.0 μg/ml, NAC 20 mM, onset of NO release until 24 h, 5.2 in the absence of NAC): 0.5 nmol/mg/h
Nitrite ([1]; LPS 1.0 μg/ml, NAC 20 mM 2 h before): 11.6 ± 1.5 nmol/mg/24 h
Nitrite ([1]; NAC 20 mM alone, no LPS, 24 h): 6.2 ± 0.8 nmol/mg Protein^24h
inhibition at 20000 µM ([1]; 7 h, NAC 20 mM added 7 h after the addition of LPS, read-out: inhibition of nitrite production): 20%
inhibition at 20000 µM ([1]; IFN-γ 200 U/ml, NAC 20 mM 2 h before, read-out: Inhibition (%) of nitrite): 89%
inhibition at 20000 µM ([1]; IL-1β 200 ng/ml, NAC 20 mM 2 h before, read-out: Inhibition (%) of nitrite): 57%
inhibition at 20000 µM ([1]; LPS 0.2 μg/ml + IFN-γ 50 U/ml, NAC 20 mM 2 h before, read-out: Inhibition (%) of nitrite): 84%
inhibition at 20000 µM ([1]; LPS 0.2 μg/ml + IL-1β 25 ng/ml, NAC 20 mM 2 h before, read-out: Inhibition (%) of nitrite): 81%
inhibition at 20000 µM ([1]; LPS 0.2 μg/ml + TNF-α 20 ng/ml, NAC 20 mM 2 h before, read-out: Inhibition (%) of nitrite): 92%
inhibition at 20000 µM ([1]; LPS 1.0 μg/ml, NAC 20 mM 2 h before, read-out: Inhibition (%) of nitrite): 91%
inhibition at 20000 µM ([1]; NAC 20 mM, 2 h before LPS, read-out: inhibition of LPS-mediated nitrite production): > 90%
inhibition at 20000 µM ([1]; TNF-α 20 ng/ml + IFN-γ 50 U/ml, NAC 20 mM 2 h before, read-out: Inhibition (%) of nitrite): 79%
inhibition at 20000 µM ([1]; TNF-α 20 ng/ml + IL-1β 25 ng/ml, NAC 20 mM 2 h before, read-out: Inhibition (%) of nitrite): 83%
inhibition at 20000 µM ([1]; TNF-α 100 ng/ml, NAC 20 mM 2 h before, read-out: Inhibition (%) of nitrite): 64%
inhibition at 20000 µM ([1]; no stimulus (Control), NAC 20 mM, read-out: Inhibition (%) of nitrite): 37%
inhibition at 20000 µM ([1]; of LPS (1.0 μg/ml)-induced nitrite, NAC 20 mM 2 h before, NMA 0.1 mM, arginase 100 units/ml with LPS, read-out: Inhibition (%)): 91%
Nitrite ([1]; TNF-α 20 ng/ml + IFN-γ 50 U/ml, NAC 20 mM 2 h before): 29.6 ± 4.2 nmol/mg/24 h
Nitrite ([1]; TNF-α 20 ng/ml + IL-1β 25 ng/ml, NAC 20 mM 2 h before): 22.8 ± 2.7 nmol/mg/24 h
Nitrite ([1]; TNF-α 100 ng/ml, NAC 20 mM 2 h before): 10.1 ± 1.6 nmol/mg/24 h
Nitrite ([1]; no stimulus (Control), NAC 20 mM): 6.2 ± 0.8 nmol/mg/24 h
protection against EAE disease [2, 4]: protected the rats from the severity of the disease

CC[C@H](C)C(=O)O[C@H]1C[C@@H](C)C=C2C=C[C@H](C)[C@H](CC[C@@H]3C[C@@H](O)CC(=O)O3)[C@H]21 [Lovastatin]
Production of NO ([1]; Macrophages, 10 μM lovastatin or 5 mM NaPA 8 h, then LPS 1.0 μg/ml, 24 h): 7.2 ± 0.9 nmol/24 h/mg protein
protection against EAE disease [2, 4]: significantly delayed the onset of first of clinical symptom
LPS-mediated induction of iNOS protein and mRNA ([3]; LPS 1.0 μg/ml): significantly inhibited the LPS-mediated induction of iNOS protein and mRNA
